Patent publication US11352371B2, “Thienopyrimidine derivatives as ACC inhibitors and uses thereof” (Gilead Sciences, Inc., priority 2019, dated 2022)

Assays:
[1] = system: De Novo Lipogenesis (DNL) in liver; assay: In vivo De Novo Lipogenesis study; parameters: species or system Male Sprague Dawley (SD) rats; settings: Rattus norvegicus; male SD rats, single p.o. dose, acetate i.p. 3h post-dose, livers collected 1h later; read-out: effective dose that decreased in vivo DNL by 50% (ED50)
Procedure: The DNL inhibitory activity of the compound of Example 1 was assessed in vivo as follows.
The studies were performed at Covance Laboratories (Madison, Wis.) in compliance with Institutional Animal Care and Use Committee protocols. Male Sprague Dawley (SD) rats were purchased from Envigo RMS, INC and were acclimatized for 7 days prior to study initiation. Animals were provided ad libitum access to food and water for the duration of the study. On the day of the experiment, animals were randomized into dose groups (n=6 rats/group) based on body weight and received a single p.o dose of vehicle (0.1% Tween 80 in water, pH 7.5-8.0) or a dose range of the compound of Example 1 (0.1 μg/kg-1 mg/kg). 3h post-dose (Example 1), the animals received a single i.p bolus of […] (Perkin Elmer, 32 μCi/animal) and were sacrificed 1h later, and livers were collected for DNL analysis. An approx. 0.75 g piece of liver was saponified at 70° C. for 120 min in 1.5 mL of 2.5M NaOH followed by addition of 2.5 mL of ethanol, vigorous mixing. […] Residual ether fractions were dissolved in at least 5 mL of Ultima Gold XR scintillation fluid and analyzed by liquid scintillation counting (LSC). The resulting dpm ([…]) values were normalized to tissue weight and the data were expressed as a percent of vehicle. […]

[2] = Preliminary study of systemic blood clearance after intravenous administration; type: in vivo; settings: monkeys, preliminary studies

COc1ccccc1[C@H](Cn1c(=O)n(C(C)(C)C(=O)NS(=O)(=O)C2(C)CC2)c(=O)c2c(C)c(-c3ncco3)sc21)O[C@@H]1C[C@H]2CC[C@@H](C1)O2 [Example 1, 2-(1-((R)-2-(((1R,3s,5S)-8-oxabicyclo[3.2.1]octan-3-yl)oxy)-2-(2-methoxyphenyl)ethyl)-5-methyl-6-(oxazol-2-yl)-2,4-dioxo-1,4-dihydrothieno[2,3-d]pyrimidin-3(2H)-yl)-2-methyl-N-((1-methylcyclopropyl)sulfonyl)propanamide]
ED50 [1]: 0.08 mg/kg
systemic blood clearance [2]: higher than hepatic blood flow
